Data as given in patent publication US5185366A, “Method for treatment and prevention of diseases caused by enveloped viruses, including herpes simplex virus types 1 and 2 diseases, using 3,4-dihydroxy-2H-benzopyran-2H-one” (Ohio State University Research Foundation, priority 1990, dated 1993).

Key:
HSV-2 [1] = assay: HSV-2 plaque size, extracellular treatment; type: cell-based, Herpes simplex virus type 2; conditions: for Mean plaque diameter (±SD), Treated: extracellularly; for reduction in plaque size: virus treated extracellularly
HSV-2 [2] = assay: HSV-2 plaque size, intracellular treatment; type: cell-based, Herpes simplex virus type 2
Description: For antiviral studies the diameter of plaques is determined with the aid of a calibrated micrometer slide and a microscope eye piece having scaled markings. A simple random sample is taken and all plaque diameters are measured for both experimental and control groups. Plaque diameter also serves as an indication of inhibition of viral replication. […] Monolayers are then infected, washed with EBSS and | maintenance medium with or without compound added. Cells are stained afte | 48 hours with crystal violet and the plaque diameters are determined with | the aid of a micrometer.

Poliovirus-2 = assay: organism not typed; type: cell-based
HSV-2 [3] = assay: Intracellular activity, inhibition of plaque forming units, HSV-2; type: cell-based, Herpes simplex virus type 2; conditions: for intracellular antiviral activity: HSV-2, 10 μM; for Plaque Forming Units Mean ± SD: intracellular
HSV-2 [4] = assay: Extracellular activity, inhibition of plaque forming units, HSV-2; conditions: for extracellular antiviral activity: HSV-2, 10 μM; for Plaque Forming Units Mean ± SD: extracellular
[5] = Inhibition of cell growth (microscopic cell count); type: cell-based, Buffalo green monkey; conditions: monkey, bgm-70 cells, read-out: % Reduction of cell growth
Description: a MASHII cell harvester and placed in a scintillation counter to determin
incorporation of labelled compound and level of toxicity. BGM 70 cells ar
seeded at a concentration of […] per well in a 24well tissue cultur
plate. Cells are planted in 2 mL of growth medium with or without the tes
compound and are incubated at 37° C. for 38 hours. At 24 hours
medium is removed from onehalf of the plates and the cells are fixed and
stained with crystal violet. The remaining cultures are fixed and stained
^b BGM 70 cells are counted microscopically and comparisons are made.
Experiments are performed blindly by assigning each compound concentratio
a letter code. The code is broken after the cells are counted.
The effect of the compounds on the inhibition of cell growth is determined using BGM-70 cells grown in vitro. For this assay, BGM 70 cells are seeded at a concentration of approximately 70 cells per well in 24-well tissue culture plates. Cells are planted in 2 ml of growth medium with or without the test compound and are incubated at 37° C. for 48 hours. At 24 hours, cells from one half of the plates are fixed and stained with crystal violet. The remaining cultures are fixed and stained at 48 hours. Cells are counted microscopically and comparisons are made between non-treated (control) and treated cells.

[6] = listed as 3,4-dihydroxy-2H-1-benzopyran-2-one

O=c1oc2ccccc2c(O)c1O [Compound 5, 3,4-dihydroxy-2H-1-benzopyran-2-one]
Mean plaque diameter (±SD), Treated (HSV-2 [1]; 10 μM, relative viral conc 1): 449 ± 70 micrometers
Mean plaque diameter (±SD), Treated (HSV-2 [1]; 10 μM, relative viral conc 10): 500 ± 100 micrometers
Mean plaque diameter (±SD), Treated (HSV-2 [1]; 20 μM, relative viral conc 10): 486 ± 80 micrometers
reduction in plaque size (HSV-2 [1]; 10 μM): no significant reduction
reduction in plaque size (HSV-2 [1]; 10 μM, listed as 3,4-dihydroxy-2H-1-benzopyran-2-one): no reduction in plaque size
inhibition at 10 µM (HSV-2 [2]; Human alphaherpesvirus 2, 48 h, viral-infected cells, 10 μM, read-out: reduction in plaque size): 56%
inhibition at 10 µM (HSV-2 [2]; Human alphaherpesvirus 2, intracellularly, 10 μM, relative viral conc 10, read-out: % Inhib (mean plaque diameter)): 56%
inhibition at 20 µM (HSV-2 [2]; Human alphaherpesvirus 2, intracellularly, 20 μM, relative viral conc 10, read-out: % Inhib (mean plaque diameter)): 60%
Mean plaque diameter (±SD), Treated (HSV-2 [2]; intracellularly, 10 μM, relative viral conc 1): 213 ± 79 micrometers
Mean plaque diameter (±SD), Treated (HSV-2 [2]; intracellularly, 10 μM, relative viral conc 10): 221 ± 89 micrometers
Mean plaque diameter (±SD), Treated (HSV-2 [2]; intracellularly, 20 μM, relative viral conc 1): 205 ± 90 micrometers
Mean plaque diameter (±SD), Treated (HSV-2 [2]; intracellularly, 20 μM, relative viral conc 10): 202 ± 88 micrometers
intracellular antiviral activity (Poliovirus-2; poliovirus-2, n=2): no antiviral activity
inhibition at 10 µM (Poliovirus-2; read-out: % Inhibition of Plaque Forming Units, Intracellularly): 2.1%
intracellular antiviral activity (HSV-2 [3]): shows both intra- and extra- cellular antiviral activity
intracellular antiviral activity (HSV-2 [3]; [6]): exhibits both intracellular and extracellular activity
inhibition at 10 µM (HSV-2 [3]; Human alphaherpesvirus 2, 10 μM, one experiment, n=3 wells, P<0.07, read-out: inhibition (PFU), virus-infected cells): 26 ± 4%
inhibition at 10 µM (HSV-2 [3]; Human alphaherpesvirus 2, HSV-2, 10 μM (Table IV), read-out: % Inhibition of Plaque Forming Units, Intracellularly): 36 ± 4.7%
inhibition at 10 µM (HSV-2 [3]; Human alphaherpesvirus 2, HSV-2, 10 μM, P<0.01, read-out: inhibition (PFU), intracellularly): 25 to 39%
inhibition at 10 µM (HSV-2 [3]; Human alphaherpesvirus 2, HSV-2, 10.0 μmol/L, read-out: % Inhibition of PFU, IA (intracellular activity)): 36%
inhibition at 10 µM (HSV-2 [3]; Human alphaherpesvirus 2, intracellular, HSV-2: 1 × Cmpd (10 μM), relative viral conc 10, read-out: % Inhibition): 33%
inhibition at 10 µM (HSV-2 [3]; Human alphaherpesvirus 2, intracellular, HSV-2: 1 × Cmpd (10 μM), relative viral conc 100, read-out: % Inhibition): 39%
anti-HSV-2 properties (HSV-2 [3]; at noncytotoxic concentrations): exhibited anti-HSV-2 properties at noncytotoxic concentrations
Plaque Forming Units Mean ± SD (HSV-2 [3]; HSV-2: 1 × Cmpd (10 μM), relative viral conc 10): 14.3 ± 1.1
Plaque Forming Units Mean ± SD (HSV-2 [3]; HSV-2: 1 × Cmpd (10 μM), relative viral conc 100): 153.6 ± 7.4
extracellular antiviral activity (HSV-2 [4]): shows both intra- and extra- cellular antiviral activity
extracellular antiviral activity (HSV-2 [4]; [6]): exhibits both intracellular and extracellular activity
inhibition at 10 µM (HSV-2 [4]; Human alphaherpesvirus 2, extracellular, HSV-2 + 1 × Cmpd (10 μM), relative viral conc 10): 64%
inhibition at 10 µM (HSV-2 [4]; Human alphaherpesvirus 2, extracellular, HSV-2 + 1 × Cmpd (10 μM), relative viral conc 100): 77%
inhibition at 20 µM (HSV-2 [4]; Human alphaherpesvirus 2, extracellular, HSV-2 + 2 × Cmpd (20 μM), relative viral conc 10): 96%
inhibition at 20 µM (HSV-2 [4]; Human alphaherpesvirus 2, extracellular, HSV-2 + 2 × Cmpd (20 μM), relative viral conc 100): 95%
inhibition at 10 µM (HSV-2 [4]; Human alphaherpesvirus 2, read-out: % Inhibition of PFU, EA (extracellular activity), HSV-2, 10.0 μmol/L): 81%
inhibition at 10 µM (HSV-2 [4]; Human alphaherpesvirus 2, read-out: % Inhibition of Plaque Forming Units, Extracellularly, HSV-2, 10 μM (Table IV)): 81 ± 4%
inhibition at 10 µM (HSV-2 [4]; Human alphaherpesvirus 2, read-out: reduction (PFU), extracellularly, HSV-2, 10 μM level, P<0.01): 76 to 98%
inhibition, extracellular treatment of HSV-2 (HSV-2 [4]; comparison with clofibric acid, P<0.01): 63+/-4%
Plaque Forming Units Mean ± SD (HSV-2 [4]; HSV-2 + 1 × Cmpd (10 μM), relative viral conc 10): 5.3 ± 1.5
Plaque Forming Units Mean ± SD (HSV-2 [4]; HSV-2 + 1 × Cmpd (10 μM), relative viral conc 100): 49.3 ± 4.5
Plaque Forming Units Mean ± SD (HSV-2 [4]; HSV-2 + 2 × Cmpd (20 μM), relative viral conc 10): 0.6 ± 0.6
Plaque Forming Units Mean ± SD (HSV-2 [4]; HSV-2 + 2 × Cmpd (20 μM), relative viral conc 100): 9.7 ± 1.5
inhibition at 24 h, 10 µM ([5]; 24 h, 10.0 μmol/L): 0%
inhibition at 24 h, 50 µM ([5]; 24 h, 50.0 μmol/L): 5.9 ± 0.5%
inhibition at 24 h, 100 µM ([5]; 24 h, 100.0 μmol/L): 47.8 ± 9%
inhibition at 48 h, 10 µM ([5]; 48 h, 10.0 μmol/L): 0.4%
inhibition at 48 h, 50 µM ([5]; 48 h, 50.0 μmol/L): 8.7 ± 2.8%
inhibition at 48 h, 100 µM ([5]; 48 h, 100.0 μmol/L): 54.1 ± 3.2%
